The values that follow come from patent publication US20080132538A1, “Pharmaceutical uses for fluoroalkoxybenzylamino derivatives of nitrogen containing heterocycles” (Pfizer Inc, priority 2000, published 2008).

System in the first data set: not given
Conditions: not given
Turning to `CC(C)(C)c1ccc(OC(F)(F)F)c(CN[C@H]2CCCN[C@H]2c2ccccc2)c1.Cl`, the melting point – broadly, the temperature, or range, at which the solid turns liquid – was 262 to 264 °C.

`CC(C)c1ccc(OCC(F)(F)F)c(CN[C@H]2CCCN[C@H]2c2ccccc2)c1.Cl`: the melting point was more than 280 °C. `CN(C)c1ccc(OCC(F)(F)F)c(CN[C@H]2CCCN[C@H]2c2ccccc2)c1.Cl`: the melting point was 250 to 252 °C.

`Cl.FC(F)Oc1ccc(OC(F)F)c(CN[C@H]2CCCN[C@H]2c2ccccc2)c1`: the melting point is 238 to 239 °C.

As to `CC(C)(C)c1ccc(OC(F)F)c(CN[C@H]2CCCN[C@H]2c2ccccc2)c1.Cl`, the melting point was 263 to 264 °C (dec.). For `CC(C)Oc1ccc(OC(F)(F)F)cc1CN[C@H]1CCCN[C@H]1c1ccccc1.Cl`, the melting point was 245 to 246 °C (dec.).

As for `CCOc1ccc(OC(F)(F)F)cc1CN[C@H]1CCCN[C@H]1c1ccccc1.Cl`, the melting point was > 275 °C (dec.).

For `CC(C)c1ccc(OC(F)F)c(CN[C@H]2CCCN[C@H]2c2ccccc2)c1.Cl`, the melting point is 245 to 247 °C (dec.). Same read-out and setting: with `CC(=O)Nc1ccc(OCC(F)(F)F)c(CN[C@H]2CCCN[C@H]2c2ccccc2)c1.Cl` the figure was more than 270 °C. Still for that read-out and setting: with `Cc1ccc(OC(F)F)c(CN[C@H]2CCCN[C@H]2c2ccccc2)c1.Cl` the figure was more than 275 °C.

With `Cl.FC(F)(F)Oc1ccccc1CN[C@H]1CCCN[C@H]1c1ccccc1`, the melting point lay in the range of 231 to 233 °C.

The test system of another data set is CCR5 receptors. The settings on record: Proc. Nat'l. Acad. Sci., 98 (7), p3970; cited from earlier work.
With `COc1ccccc1CN[C@H]1C2CCN(CC2)[C@H]1C(c1ccccc1)c1ccccc1` [CP-96,345], the “effect on CCR5 receptors” value is listed as “down regulates CCR5 receptors”.
